# Where a name gives a salt, the structure may show the parent alone.
# What was measured:
# [1] = water
# surgical wounds = conditions: crystals sprinkled into surgical wounds; cited from earlier work
# human skin = test: Pin prick anesthesia after intradermal injection, human self-experimentation; conditions: in vivo
# Protocol: The Inventor carried out self-experimentation with Preparation B. I made two intradermal injections of 0.15 ml of Preparation B into the skin of my calf, right leg, inside, at sites 12 cm and 22 cm below the knee. The injections raised weals approx. 1.1 cm in diameter. […] The weals subsided within ca. 30 sec. The injected sites were tested for pin prick and cold stimulus anesthesia for the next 24 hr.
# As a control for the above, I injected myself with 0.15 ml volumes of solutions of 1%, 2% and 5% tetracaine-H-Cl. In attempt to make the concentrated solutions less damaging, the pH was adjusted from 5.3 to 6.5. Physiological tonicity was maintained by including glucose (4.3%, 3.2% and 0%, respectively). […] The 1% and 2% tetracaine-H-Cl solutions produced only mild erthrema, with return to normal color when the anesthesia subsided. […] The presented anesthesia values were taken at its periphery. […] This poor outcome with the 5% (w/v) tetracaine solution is in stark contrast to the excellent results obtained with the 20% (w/v) tetracaine-H-I microcrystal.
# [2] = pKa and oil/water partition of indomethacin; format: physicochemical
# injected muscle = test: IM injection of albendazole sulfoxide preparations in rats; format: in vivo, rat; conditions: versus albendazole
# Protocol: The above experimentation was repeated with albendazole sulfoxide, a more water-soluble analogue of the drug. […] Solubility data for albendazole sulfoxide are: 0.42 mg/ml in water, 17.7 mg/ml in propylene glycol and 179.0 mg/ml in ethanol. […] Both preparations normally settled to albendazole sulfoxide concentrations of 20% (w/v). Samples (0.1 ml) of both preparations were injected IM in rats (n=6) and the muscles were examined at necropsy, 2 days post-injection. […] Propylene glycol, which has two OH groups and a dielectric constant of 32, is an example of a polar organic compound which can be substituted for water.
# [3] = IV injection; cited from earlier work
smiles,measurement,setting,value
CN(C)[C@@H]1C(=O)C(C(N)=O)=C(O)[C@@]2(O)C(=O)C3=C(O)c4c(O)cccc4[C@@](C)(O)[C@H]3[C@H](O)[C@@H]12 [oxytetracycline],aqueous solubility,[1],1100 µg/mL
"CCCCNc1ccc(C(=O)OCCN(C)C)cc1 [hydroiodic acid (HI) salt of tetracaine, tetracaine-H-I]",duration of local anesthesia,surgical wounds,45 h
same,extension of duration of action,human skin,5 -fold
COc1ccc2c(c1)c(CC(=O)O)c(C)n2C(=O)c1ccc(Cl)cc1 [Indomethacin],solubility,Solubility; pH 9.6,30000 µg/mL
same,solubility,"Solubility; water, pH 7, water",376 µg/mL
same,oil/water partition coefficient,[2]; olive oil/water,55/1
same,oil/water partition coefficient,[2]; pentanol/water,85/1
CCC[S+]([O-])c1ccc2[nH]c(NC(=O)OC)nc2c1 (stereo not shown) [albendazole sulfoxide],rate of absorption into the blood,injected muscle,Faster rates of absorption into the blood
same,solubility,"physchem; ethanol, organic solvent or mixture, solubility, in ethanol",179000 µg/mL
same,solubility,"physchem; propylene glycol, organic solvent or mixture, solubility, in propylene glycol",17700 µg/mL
same,solubility,"physchem; water, aqueous solubility",420 µg/mL
O=C1CN(/N=C/c2ccc(-c3ccc([N+](=O)[O-])cc3)o2)C(O)=N1 [Dantrolene],dissolution in organic solvents,"Solubility; 7.9 mg in mineral oil, n-dibutyl ether, methoxyflurane",did not dissolve
"CN(C)[C@@H]1C(=O)C(C(N)=O)=C(O)[C@@]2(O)C(=O)C3=C(O)c4c(O)cccc4[C@@](C)(O)[C@H]3[C@H](O)[C@@H]12 [OTC, oxytetracycline]",solubility,"physchem; water, aqueous solubility",~1000 µg/mL
CCCSc1ccc2nc(NC(=O)OC)[nH]c2c1 [albendazole],solubility,"physchem; water, aqueous solubility",< 100 µg/mL
CC[C@H]1OC(=O)[C@H](C)[C@@H](O[C@H]2C[C@@](C)(OC)[C@@H](O)[C@H](C)O2)[C@H](C)[C@@H](O[C@@H]2O[C@H](C)C[C@H](N(C)C)[C@H]2O)[C@](C)(O)C[C@@H](C)C(=O)[C@H](C)[C@@H](O)[C@]1(C)O [erythromycin],solubility,physchem; water,2000 µg/mL
CCCC(C)C1(CC)C(=O)NC(=S)NC1=O (stereo not shown) [thiopental],listed adverse reactions,[3],venous thrombosis or phlebitis extending from the site of injection

# Reference: US5091187A, “Phospholipid-coated microcrystals: injectable formulations of water-insoluble drugs” (priority 1991, dated 1992)
